In patent US20080311185A1, “Deregulated Genes and/or Processes in Inflammatory Arthritis” (priority 2005, published 2008):
Starred links: 1 amine or outer side, 2 acyl side, 3 side chain; linkers in the order of their positions; H or OH if unused. Positions of bridges follow the written chain, without caps; N, C: chain ends. Non-standard residues stand in square brackets, D forms with d. Residues, ends and D or L forms follow the SMILES beside them. Trp(2-yl) = O=C([C@H](Cc1c([*:3])[nH]c2ccccc12)N[*:1])[*:2]; Leu(4R-OH,5-OH) = C[C@](O)(CO)C[C@H](N)C(=O)O; cisHyp = O=C(O)[C@@H]1C[C@H](O)CN1

Columns and labels:
[1] = tested on: HeLa cells; conditions: Kulms et al, 2002; cited from earlier work
[2] = tested on: Tg197 synovial fibroblasts; test: Apoptosis assay using staurosporine as inducer of cell death; assay type: cell-based, mouse; conditions: FIG. 10
Method: Confluent mouse synovial fibroblasts were washed twice with phosphate-buffered saline (PBS) and placed in DMEM without serum for 24 h. The following day 1.5×10^4 cells were plated into each well of a 96-well flat-bottom plate (Costar, Corning Inc.) in 100 μl of media plus serum. After 24 h, cells were treated with 12.5-100 ng/ml TNFα plus 0.5-3 μg/ml cyclohexamide (CHX), 30-300 μM Etoposide and 0.01-1 μM Staurosporine, for 24 h at 37° C. overnight. Cell survival was determined using the crystal violet assay. The absorbance at 570 nm was determined on a microplate reader (SPECTRAmax PLUS^384, Molecular Devices, Sunnyvale, Calif., USA), as previously described (Aidinis et al, 2003). Results are expressed as the means±S.E. of one representative experiment performed in triplicate. Statistical analysis was performed using Student's t test, with a level of significance set at p<0.05.
(§1) Disruption of actin cytoskeleton was induced with 4 μg/ml of Latrunculin A (Sigma) for 2 h at 37° C. as previously described (Spector et al, 1989). As control of TNFα involvement in actin-cytoskeleton organisation 1 μg/ml of anti-TNF (Infliximab) was added on the cells for the same period of time.

[3] = tested on: Tg197 synovial fibroblasts; test: Proliferation assay of Tg197 synovial fibroblasts after drug treatment; assay type: cell-based, mouse; conditions: FIG. 9
Method: FIG. 7. […] Mean averages of triplicates with mean background (adhesion to BSA) values subtracted. Representative experiment out of three (t-test; P<0.05). (C) DNA synthesis/proliferation assay in the presence or absence of 10% FBS, 48 h after treatment. Values represent [3H]Thymidine incorporation (×10^3). Mean average of triplicates (t test; P<0.05). (D) Assay of wound-healing treated with Mytomycin C for 2 h. Pictures were taken at Oh and 24 h after the wound (Oh not shown). (E) TNF cytotoxicity assay with cyclohexamide. After 24 h survival was determined using the crystal violet assay. (F) Apoptosis assay using 30-300 μM etoposide. (G) Apoptosis assay using 0.01-1 μM staurosporine.
as §1

[4] = tested on: Tg197 synovial fibroblasts; test: Migration assay of Tg197 synovial fibroblasts after drug treatment; assay type: cell-based, mouse; conditions: drug treatment 2 h at 37° C., compare to Wt, FIG. 8
Method: (§2) FIG. 8. Adhesion/Migration assays showing the effect of Lat-A on Tg197 actin-cytoskeleton properties.
as §1

[5] = tested on: Tg197 synovial fibroblasts; test: Adhesion assay of Tg197 synovial fibroblasts after drug treatment; assay type: cell-based, mouse; conditions: drug treatment 2 h at 37° C., FIG. 8
Method: as §2
Adhesion assays were performed on Cytometrix adhesion strips (Chemicon) coated with human fibronectin, vitronectin, laminin and collagen I, according to the manufacturer instructions.
as §1

| Compound | apoptosis in HeLa cells [1] | resistance to apoptosis [2] | proliferation levels of TgSFs [3] | migration of TgSF's [4] | adhesion of TgSF's [5] |
| --- | --- | --- | --- | --- | --- |
| C=C1[C@@H](C)[C@H]2[C@H](Cc3ccccc3)NC(=O)[C@]23[C@H](OC(C)=O)/C=C/[C@@](C)(O)C(=O)[C@@H](C)C/C=C/[C@H]3[C@@H]1O [Cytochalasin D] | enhances apoptosis |  |  |  |  |
| C/C1=C/C(=O)O[C@@H]2C[C@@H](CC[C@H](C)/C=C\C=C\CC1)O[C@@](O)([C@@H]1CSC(=O)N1)C2 [Lat-A, Latrunculin A] |  | decreased resistance to apoptosis at the levels of the Wt SFs | decline lower even than the levels of WtSFs | migration seems to be increased | decreased adhesion |
| C[C@@H]1NC(=O)[C@H](C[C@@](C)(O)CO)NC(=O)[C@@H]2Cc3c([nH]c4ccccc34)SC[C@H](NC(=O)[C@@H]([C@H](C)O)NC1=O)C(=O)N1C[C@@H](O)C[C@H]1C(=O)N[C@@H](C)C(=O)N2 [phalloidin] (cyclo(A[dT]C[cisHyp]A[Trp(2-yl)][Leu(4R-OH,5-OH)]); thioether 3-6) | does not affect apoptosis |  |  |  |  |
| TNFα |  |  | do not have an effect |  |  |
| anti-TNF: anti-TNF (Infliximab), control of TNFα involvement in actin-cytoskeleton organisation |  |  |  | do not show altered adhesion/migration properties | do not show altered adhesion/migration properties |
